The results in this text go back to article PMC11350787, “Antimicrobial Properties and Cytotoxicity of LL-37-Derived Synthetic Peptides to Treat Orthopedic Infections” (Antibiotics, 2024).

In test [1] the test system is S. aureus ATCC 25923. Nature of the test: microbe, parasite or virus in culture. In short, it runs like this:
(§1)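 MIC and MBC were determined following ISO20776-1 and CLSI guidelines, with the highest final AMP concentration at 300 µg/mL. Strains were revived in BHI broth at 37 °C for 18 h. MBC was the lowest concentration showing no growth when MIC-plate wells were plated on TSA for 24 h at 37 °C.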

Test [2] relates to P. aeruginosa ATCC 27853. Nature of the test: microbe, parasite or virus in culture. In short, it runs like this:
as §1

Test [3] relates to E. coli ATCC 25922. Nature of the test: microbe, parasite or virus in culture. In short, it runs like this:
as §1

In test [4] the test system is S. epidermidis GOI1153754-03-14 (CI). Nature of the test: microbe, parasite or virus in culture. In short, it runs like this:
as §1

In test [5] the test system is S. aureus ATCC 43300. The test is described as follows: microbe, parasite or virus in culture. In short, it runs like this: as §1
The test system of test [6] is S. epidermidis ATCC 35984 biofilm. The test is described as follows: Biofilm removal activity (CLSM, LIVE/DEAD). It counts as cell-based. As to conditions: 72-h-old biofilm; 18 h; vancomycin 0.5%; p < 0.01 vs FK-16. The protocol: (§2) Rough titanium disks (Adler Ortho, Cormano, Milan, Italy) were autoclaved at 121°C for 15 min and placed into sterile 6-well plates. S. epidermidis ATCC 35984, S. epidermidis GOI1153754-03-14, S. aureus ATCC 49,230 and S. aureus Sau89 were grown overnight in BHI broth at 37 °C. The culture was diluted up to 1.5 × 10^6 in BHI broth and 6 mL of each culture was inoculated in the disk containing wells. Two disks were inoculated with sterile BHI as sterility control. All the plates were incubated at 37 °C for 72 h. After incubation, the disks were gently washed with sterile saline to remove unattached cells. Each disk was treated with either vancomycin at 0.5% (Pharmatex, Milan, Italy), GF-17 (18.75 µg/mL) or FK-16 (75 µg/mL) for 18 h. Two disks for each bacterial inoculum were untreated as control. Subsequently, disks were gently washed with sterile saline solution and stained with Filmtracer^TM LIVE/DEAD^TM Biofilm Viability Kit (Thermo Fisher Diagnostics, Monza, Italy), according to the manufacturer’s instructions, washed again with sterile saline and observed with an upright TCS SP8 (Leica Microsystems CMS GmbH, Mannheim, Germany) using a 20X dry objective (HC PL FLUOTAR 20X/0.50 DRY). The images were acquired with Las X (Leica Microsystems CMS GmbH, Mannheim, Germany) and analyzed with Fiji software (Fiji, ImageJ version 1.53t, Wayne Rasband National Institutes of Health). For each channel, the biofilm area was measured after setting the threshold at 14 for the red channel and 20 for the green channel. The biofilm data were expressed as the percentage of red signal (dead cells) relative to the green channel (live cells). Finally, the data were normalized against the control, which was set to 1.

For test [7], the system named is S. epidermidis GOI1153754-03-14 biofilm. Nature of the test: Biofilm removal activity (CLSM, LIVE/DEAD). As to conditions: titanium disks; 18 h treatment; FK-16 75 µg/mL, GF-17 18.75 µg/mL, vancomycin 0.5%. It counts as cell-based. As for the experimental part:
as §2

In test [8] the test system is S. aureus ATCC 49230 biofilm. Nature of the test: Biofilm removal activity (CLSM, LIVE/DEAD). It counts as cell-based. Conditions: 72-h-old biofilm; 18 h; vancomycin 0.5% vs FK-16 75 µg/mL; p < 0.01. The protocol: as §2
Test [9] deals with S. aureus Sau89 biofilm. Nature of the test: Biofilm removal activity (CLSM, LIVE/DEAD). As to conditions: 72-h-old biofilm; 18 h; vancomycin 0.5% vs FK-16 75 µg/mL; p < 0.05. Format: cell-based. As for the experimental part: as §2

≈ marks a conversion by molar mass, not a printed value. A value given as a limit tells only on which side of the number the result lay.

As to `CN[C@H](CC(C)C)C(=O)N[C@H]1C(=O)N[C@@H](CC(N)=O)C(=O)N[C@H]2C(=O)N[C@H]3C(=O)N[C@H](C(=O)N[C@H](C(=O)O)c4cc(O)cc(O)c4-c4cc3ccc4O)[C@H](O)c3ccc(c(Cl)c3)Oc3cc2cc(c3O[C@@H]2O[C@H](CO)[C@@H](O)[C@H](O)[C@H]2O[C@H]2C[C@](C)(N)[C@H](O)[C@H](C)O2)Oc2ccc(cc2Cl)[C@H]1O` [Van, vancomycin], the “Susceptibility category by MIC (EUCAST clinical breakpoints tables, v. 14)” value in test [1] (S. aureus 25923) is on record as “S”; in test [2] (P. aeruginosa 27853), “R”; in [3] (E. coli 25922), “R”; in [4] (S. epidermidis GOI1153754-03-14), “S”. Besides, the MBC is 0.6 µg/mL (≈ 0.414 µM) in [1] (Staphylococcus aureus, ATCC25923, 24 h, read-out: Minimum Bactericidal Concentration (MBC)); more than 40 µg/mL in test [2] (Pseudomonas aeruginosa, ATCC27853, 24 h, read-out: Minimum Bactericidal Concentration (MBC)); more than 40 µg/mL in test [3] (Escherichia coli, ATCC25922, 24 h, read-out: Minimum Bactericidal Concentration (MBC)); 2.5 µg/mL (≈ 1.73 µM) in [4] (Staphylococcus epidermidis, read-out: Minimum Bactericidal Concentration (MBC)); 0.6 µg/mL (≈ 0.414 µM) in test [5] (Staphylococcus aureus, ATCC43300, 24 h, read-out: Minimum Bactericidal Concentration (MBC)). In addition, the MIC in [1] (Staphylococcus aureus, ATCC25923, read-out: Minimum Inhibitory Concentration (MIC)) is 0.6 µg/mL (≈ 0.414 µM); in [2] (Pseudomonas aeruginosa, ATCC27853, read-out: Minimum Inhibitory Concentration (MIC)) it was more than 40 µg/mL; in test [3] (Escherichia coli, ATCC25922, read-out: Minimum Inhibitory Concentration (MIC)), more than 40 µg/mL; in test [4] (Staphylococcus epidermidis, read-out: Minimum Inhibitory Concentration (MIC)), 1.25 µg/mL (≈ 0.863 µM); in test [5] (Staphylococcus aureus, ATCC43300, read-out: Minimum Inhibitory Concentration (MIC)), 0.6 µg/mL (≈ 0.414 µM). Moreover, in test [5] (S. aureus 43,300 as printed in text), the “Susceptibility category by MIC (EUCAST clinical breakpoints tables, version 14)” value is on record as “S”. The entries for the “Dead bacteria in biofilm (quantitative analysis of fluorescent signals, relative mortality)” value in [6], in test [8] and in [9] were “higher than the uninoculated control”, “more dead cells compared to FK-16 treatment” and “more dead cells compared to FK-16 treatment”, respectively. Besides, the “CLSM observation of treated 72-h-old biofilm (live green / dead red)” value in test [7] was “less disruptive effect”.
